Source: patent US9844575B2, “Pharmaceutical composition and functional food comprising natural extracts for preventing or treating diabetic complications or angiodema” (KOREA INSTITUTE OF ORIENTAL MEDICINE, priority 2013, dated 2017)
Structures can show the parent of a compound that is named as a salt.

Tests used:
[1] = tested on: vascular endothelial growth factor (VEGF); test: Immunohistochemical staining: formation of VEGF in retina of db/db mice; format: in vivo; settings: oral once daily 12 weeks; COPH 25 and 50 mg/kg; MET 350 mg/kg; COPH 50 + MET 350 mg/kg
Excerpt: VEGF induces neovascularization and increases permeability of blood vessels. Additionally, VEGF also induces the formation of substrate-degradative proteins.

[2] = tested on: advanced glycation endproducts (AGE); test: Inhibitory effect against formation of advanced glycation endproducts (BSA + fructose/glucose, 7 days, fluorescence); format: biochemical
Description: Experiments were performed to examine the inhibitory effects of each of the compositions prepared in Example 1 and Example 2 against the formation of advanced glycation endproducts.
Bovine serum albumin (BSA), a protein source, was prepared by mixing into a phosphate buffer solution. As a sugar source, a mixed solution between 0.2 M fructose and 0.2 M glucose was used. Each of the compositions prepared in Example 1 and Example 2, and aminoguanidine (positive control) were respectively added into a mixed solution between BSA and a sugar, and cultured for 7 days. After culturing, the content of the resulting advanced glycation endproducts was analyzed. The amount of the advanced glycation endproducts was calculated based on the Equation 1 below using a Microplate reader (Excitation; 350 nm, Emission; 450 nm) (Table 1). Inhibitory effect of AGE (%)={100−(fluorescence intensity of a sample)−(fluorescence intensity of a blank sample)/(fluorescence intensity of a control)−(fluorescence intensity of a blank control)}×100 [Equation 1]

Structure (SMILES)	expression of VEGF within retinal tissue (FIG. 9) [1]	IC50 ([2]; AGE formation, BSA + 0.2 M fructose/0.2 M glucose, 7 days)	Inhibitory effect (%) ([2]; Conc. 55.5 μg/mL)	Inhibitory effect (%) ([2]; Conc. 74.8 μg/mL)	Inhibitory effect (%) ([2]; Conc. 92.5 μg/mL)
CN(C)C(=N)N=C(N)N [MET, metformin]	significantly inhibited the expression of VEGF	–	–	–	–
N=C(N)NN [Aminoguanidine HCl]	–	76.47 ± 4.81 µg/mL	43.92 ± 0.37%	50.86 ± 2.17%	54.91 ± 0.75%
